Results reported in publication PMC3048735 (The Journal of Biological Chemistry, 2011).

Target: T1, TryP (TbTryP) (Trypanosoma brucei, UniProt Q71RY2)
T1 sequence (Q71RY2 1-199): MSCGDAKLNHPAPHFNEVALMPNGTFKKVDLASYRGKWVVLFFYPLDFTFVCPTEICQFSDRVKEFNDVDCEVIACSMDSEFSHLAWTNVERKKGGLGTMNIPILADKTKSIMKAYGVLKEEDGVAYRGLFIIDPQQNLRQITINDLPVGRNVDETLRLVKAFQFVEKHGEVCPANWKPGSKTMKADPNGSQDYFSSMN
Assay: TryP-limited coupled peroxidase assay, NADPH consumption at […] nm
Type: biochemical

O=C1C=CC(O)(c2nc3ccccc3s2)C=C1 [compound 1, PMX464]
IC50: 14.1 ± 0.8 µM
